Data set [1] concerns promyelocyte leukemia cell strain HL-60. As to the kind of experiment: Test for induction of cell differentiation in HL-60 cells (NBT reduction ability). The class given is cell-based. The settings on record: for Ratio of cells for which differentiation was induced by each compound alone (%): calculated from NBT reduction ability; for Ratio of cells for which differentiation was induced by each compound in combination with 1 × 10^−7 M of HX630 (%): in combination with 1×10^−7 M HX630 (retinoid synergist). Here is the method:
For each of the compounds of the examples, action for inducing cell differentiation was examined for each alone and in combination with 1×10^−7 M of HX630. According to the methods described in Japanese Patent Unexamined Publication (KOKAI) No. (Sho)61-76440/1986, differentiation of the cells of promyelocyte leukemia cell strain HL-60 into granulocytic series cells was determined based on morphological change and measurement of ability to reduce nitro blue tetrazolium (NBT). The ratios (%) of differentiated cells shown in the following table are those calculated from NBT reduction ability. HX630 is a retinoid synergist that enhances actions of retinoids, and the concentrations of −8, −7 and −6 mean that each compound was added at concentrations of 1×10^−8 M, 1×10^−7 M and 1×10^−6 M, respectively.

Setting [2] is: compound concentration -6 (1×10^−6 M).
Setting [3] is: compound concentration -7 (1×10^−7 M).
Where [4] appears, read: compound concentration -8 (1×10^−8 M).

In general, melting point refers to the temperature of the solid-liquid transition. For `CC1(C)CCC(C)(C)c2cc(-c3ccc(O)c(=O)cc3)ccc21` [Tp05], the melting point was 161 °C. The “Ratio of cells for which differentiation was induced by each compound alone (%)” value in data set [1] (concentration -6 (1×10^−6 M)) was 13%. Further, the “Ratio of cells for which differentiation was induced by each compound alone (%)” value in data set [1] (concentration -7 (1×10^−7 M)) is listed as 0.5%. Besides, the “Ratio of cells for which differentiation was induced by each compound alone (%)” value in data set [1] (concentration -8 (1×10^−8 M)) is 0.6%. Further, the “Ratio of cells for which differentiation was induced by each compound in combination with 1 × 10^−7 M of HX630 (%)” value in data set [1] (setting [2]) was 35%. Besides, in data set [1] (setting [3]), the “Ratio of cells for which differentiation was induced by each compound in combination with 1 × 10^−7 M of HX630 (%)” value came to 1.2%. In addition, in data set [1] (setting [4]), the “Ratio of cells for which differentiation was induced by each compound in combination with 1 × 10^−7 M of HX630 (%)” value came to 1.2%.

Take `COc1ccc(C(=O)Nc2ccc(O)c(=O)cc2)cc1C12CC3CC(CC(C3)C1)C2` [Tp88]: the melting point worked out at 142 °C. Besides, in data set [1] (concentration -6 (1×10^−6 M)), the “Ratio of cells for which differentiation was induced by each compound alone (%)” value is on record as 46%. The “Ratio of cells for which differentiation was induced by each compound alone (%)” value in data set [1] (concentration -7 (1×10^−7 M)) is 1.2%. Also, the “Ratio of cells for which differentiation was induced by each compound alone (%)” value in data set [1] (concentration -8 (1×10^−8 M)) is 0.9%. In data set [1] (setting [2]), the “Ratio of cells for which differentiation was induced by each compound in combination with 1 × 10^−7 M of HX630 (%)” value stood at 62%. The “Ratio of cells for which differentiation was induced by each compound in combination with 1 × 10^−7 M of HX630 (%)” value in data set [1] (setting [3]) is listed as 14%. For the same molecule, the “Ratio of cells for which differentiation was induced by each compound in combination with 1 × 10^−7 M of HX630 (%)” value in data set [1] (setting [4]) was 2.6%.

`CC1(C)CCC(C)(C)c2cc(-c3ccc(-c4ccc(O)c(=O)cc4)s3)ccc21` [Tp210]: the “Ratio of cells for which differentiation was induced by each compound alone (%)” value in data set [1] (concentration -6 (1×10^−6 M)) was 11%; in data set [1] (concentration -7 (1×10^−7 M)) it was 6%; in data set [1] (concentration -8 (1×10^−8 M)) it was 0.8%. Moreover, the “Ratio of cells for which differentiation was induced by each compound in combination with 1 × 10^−7 M of HX630 (%)” value in data set [1] (setting [2]) turned out to be 91%; in data set [1] (setting [3]), 91%; in data set [1] (setting [4]), 64%.

`CC1(C)CCC(C)(C)c2cc3cc(-c4ccc(O)c(=O)cc4)ccc3cc21` [Tp250]: the “Ratio of cells for which differentiation was induced by each compound alone (%)” value is on record as 56% in data set [1] (concentration -6 (1×10^−6 M)), 66% in data set [1] (concentration -7 (1×10^−7 M)) and 63% in data set [1] (concentration -8 (1×10^−8 M)). Also, the “Ratio of cells for which differentiation was induced by each compound in combination with 1 × 10^−7 M of HX630 (%)” value came out at 79% in data set [1] (setting [2]), 84% in data set [1] (setting [3]) and 91% in data set [1] (setting [4]).

With `CC1(C)CCC(C)(C)c2cc3sc(-c4ccc(O)c(=O)cc4)cc3cc21` [Tp260], the “Ratio of cells for which differentiation was induced by each compound alone (%)” value in data set [1] (concentration -6 (1×10^−6 M)) is recorded as 55%; in data set [1] (concentration -7 (1×10^−7 M)) it was 20%; in data set [1] (concentration -8 (1×10^−8 M)), 10%. The “Ratio of cells for which differentiation was induced by each compound in combination with 1 × 10^−7 M of HX630 (%)” value came out at 67% in data set [1] (setting [2]), 83% in data set [1] (setting [3]) and 91% in data set [1] (setting [4]).
